In BindingDB's records for doi:10.1021/jm00025a010 (Eli Lilly, 1995) one finds IC50 data, which are given here for 8 compounds.

A value given as a limit tells only on which side of the number the result lay.

The first test deals with T1, Gag-Pol polyprotein [588-1027]/[588-1147] (Human immunodeficiency virus 1, UniProt P04585).
T1 construct: 588-1027; 588-1147
The test is described as follows: HIV-1 RT Assay.
Details: not given
The compound `S=C(NCCc1cccnc1)Nc1nccs1` [1-[2-(pyridin-3-yl)ethyl]-3-1,3-thiazol-2-ylthiourea] had an IC50 above 10 µM.

`S=C(NCCc1ccncc1)Nc1nccs1` [1-[2-(pyridin-4-yl)ethyl]-3-1,3-thiazol-2-ylthiourea]: the IC50 was above 10 µM. `CCCCCCOc1cccc(CC/N=C(\S)Nc2nccs2)c1` [N-(2-(3-(Hexyloxy)phenethyl))-N -(2-thiazolyl)thiourea]: the half-maximal inhibitory concentration (IC50) was above 10 µM.

The test is the same for the next values; noted with them: pH 7.8; 37 °C.
Compound `O=C(O)c1csc(/N=C(\S)NCCc2ccccc2)n1` [2-{[(2-phenylethyl)carbamothioyl]amino}-1,3-thiazole-4-carboxylic acid] came in with a concentration for half-maximal inhibition (IC50) above 10 µM.

In turn, `Cc1csc(NC(=S)NCCc2ccccc2)n1` [3-(4-methyl-1,3-thiazol-2-yl)-1-(2-phenylethyl)thiourea] displayed a 50% inhibitory concentration (IC50) of 0.1 µM. Consider `CCc1csc(NC(=S)NCCc2c(F)cccc2F)n1` [N-(2-(2,6-Difluorophenyl)ethyl)-N -(2-(4-ethylthiazolyl))thiourea], for which the IC50 was 0.0055 µM.

In the case of `S=C(NCCc1ccccc1)Nc1ncccc1Br` [N-(2-Phenethyl)-N -(2-(3-bromopyridyl))thiourea], the IC50 is above 10 µM. The compound `S=C(NCCc1ccccc1)Nc1cc[nH]n1` [N-(2-Phenethyl)-N -(3-pyrazolyl)thiourea] registered a 50% inhibitory concentration (IC50) above 10 µM.
